In data set [1] the test system is control plasmid lacking 5′ UTR. As to the kind of experiment: In vitro translation assay, control lacking 5′ UTR. Type of data set: biochemical. How it is done:
Luciferase assay. The effect of Synucleozid treatment on translation from various IRE containing transcripts was determined using luciferase reporter assay. SH-SY5Y cells stably expressing 5' UTR were treated with Synucleozid for 48 h, washed with PBS and lysed with Passive Lysis Buffer for 15 min at room temperature. Luciferase reporter activity in each lysate was monitored using the dual luciferase reporter assay system kit (Promega. Madison, Wis., USA) according to the manufacturer's instructions. Luminescence from firefly luciferase reaction was measured using a microplate luminometer (Wallac 1420, Perkin Elmer) at 485 nm excitation and 535 nm emission wavelengths. Firefly luciferase reaction was then quenched by adding Stop & Glo reagent, and the internal fluorescence from GFP measured at the same setting was used to normalize luciferase expression. Luciferase reporter activity was expressed as percent change compared to the respective vehicle-treated control cells. In vitro translation assay. The mRNA template for in vitro translational assays was transcribed from the pIRES-Luc-EGFP-puro and pCDH-α-syn-5'-UTR-Luc-EGFP-puro plasmids by using an in vitro transcription system (RiboMax, Promega) with forward primer: [NT] and reverse primer: [NT]. […] Translation proceeded at 30° C. for 90 min, and then luminescence was measured with a Biomek FLx800 plate reader (1.0 s integration time).

The subject of data set [2] is SH-SY5Y cells. Nature of the data set: LDH release cytotoxicity assay. Type of data set: cell-based, human. The settings on record: 0.25, 0.5 and 1 μM, 48 h. How it is done:
To assess if Synucleozid has a cytotoxic effect, SH-SY5Y cells were treated with 0.25, 0.5 and 1 μM for 48 h, and cell viability and cytotoxicity were measured using CellTiter 96 Aqueous One Solution Cell Proliferation Assay (MTS) and LDH release assay, respectively, according to the manufacturers' instructions.
On the technique in general: Release of lactate dehydrogenase indicates damage to the cell membrane.

Data set [3] concerns 2-AP labeled SNCA IRE RNA. Nature of the data set: 2-AP emission assay. Type of data set: binding, human. The following applies: decrease of 2-AP emission. The protocol:
2-AP emission assay. One μM 2-AP labeled SNCA IRE RNA was folded by heating to 65° C. for 5 min in 1× Assay Buffer and slowly cooling to room temperature. Bovine serum albumin (BSA) was then added to the RNA solution to 40 μg/mL. After adding Synucleozid to RNA solution at a final concentration […] of 100 μM, serial dilutions were prepared using 1× Assay Buffer including BSA supplemented with folded one μM 2-AP labeled SNCA IRE RNA. The solutions were incubated at room temperature for 30 min in dark and transferred into wells of black 384-well half area plates (Greiner). Fluorescence intensity was measured at room temperature with Tecan plate reader (Gain: 100, Integration time: 40 μs). Fluorescence excitation and emission wavelengths were set at 310 and 380 nm. The change of 2-AP fluorescence intensity as a function of Synucleozid concentration was fit to Eq. (1):
(§1) EC50 was calculated from Eq. (1).

Data set [4] concerns the target RNA-1 (A bulge mutated to a base pair). As to the kind of experiment: Competitive binding assay (2-AP), RNA-1. How it is done: as §1
Data set [5] concerns the target T1, IRP-1:SNCA IRE RNA complex (Homo sapiens, UniProt P21399).
T1 construct: purchased Abnova
Nature of the data set: In vitro displacement of IRPs by gel mobility shift assay, IRP-1. The settings on record: 0.2, 1, 5 μM; pre-incubation 1-60 min. Type of data set: binding. How it is done:
In vitro displacement of IRPs by gel mobility shift assays. SNCA IRE hairpin RNA was 5′-end labeled with [γ-^32P]ATP as previously described^5. Approximately, 2 pmoles of ^32P labeled RNA per 20 μL reaction was folded in 1× Assay Buffer by heating at 65° C. for 5 min and slowly cooling to room temperature. As indicated, vehicle, Synucleozid (0.2, 1, 5 μM) or unlabeled IRE RNA (1 μM, folded as described above and used as a positive control) was added to the samples, and the samples were incubated at room temperature for varying amounts of time (1-60 min as indicated). Then, 0.5 μg IRP-1 or IRP-2 (Abnova) was added, and the samples were incubated at room temperature for an additional 30 min. An equal volume of 2× Native Gel Loading Buffer (2×TBE, 50% Glycerol, 0.025% (w/v) Bromophenol blue and Xylene cyanol FF) was added to each sample. Note, Native Gel Loading Buffer added to Synucleozid-treated samples was supplemented with the same concentration of Synucleozid as in the sample to maintain a constant concentration. IRP:IRE complexes and free IRE were separated on a native 15% polyacrylamide prepared 1×TBE supplemented with the same concentration of Synucleozid as in compound-treated samples, and imaged using a Bio-Rad PMI phosphorimager. Images were quantified with BioRad's Quantity One software.

Data set [6] has as its system wild type A bulge IRE RNA. Nature of the data set: Thermal melting experiment, wild type IRE.
Method: Thermal melting experiment. […] The RNA was heated to 65° C. and slowly cooled to room temperature. […] The absorbance of solution was monitored at 260 nm by a Beckman Coulter DU 800 Spectrophotometer. Background of buffer or buffer plus compound was subtracted from the signal. Resulted melting curves were fitted with MeltWin v3.5 to determine ΔG°, ΔH°, ΔS°, and Tm. The melting temperature was compared to the first derivative value from the raw data for similarity.

Molecules are shown by their SMILES.

T1 sequence (P21399 whole entry, species assumed, one chain of several): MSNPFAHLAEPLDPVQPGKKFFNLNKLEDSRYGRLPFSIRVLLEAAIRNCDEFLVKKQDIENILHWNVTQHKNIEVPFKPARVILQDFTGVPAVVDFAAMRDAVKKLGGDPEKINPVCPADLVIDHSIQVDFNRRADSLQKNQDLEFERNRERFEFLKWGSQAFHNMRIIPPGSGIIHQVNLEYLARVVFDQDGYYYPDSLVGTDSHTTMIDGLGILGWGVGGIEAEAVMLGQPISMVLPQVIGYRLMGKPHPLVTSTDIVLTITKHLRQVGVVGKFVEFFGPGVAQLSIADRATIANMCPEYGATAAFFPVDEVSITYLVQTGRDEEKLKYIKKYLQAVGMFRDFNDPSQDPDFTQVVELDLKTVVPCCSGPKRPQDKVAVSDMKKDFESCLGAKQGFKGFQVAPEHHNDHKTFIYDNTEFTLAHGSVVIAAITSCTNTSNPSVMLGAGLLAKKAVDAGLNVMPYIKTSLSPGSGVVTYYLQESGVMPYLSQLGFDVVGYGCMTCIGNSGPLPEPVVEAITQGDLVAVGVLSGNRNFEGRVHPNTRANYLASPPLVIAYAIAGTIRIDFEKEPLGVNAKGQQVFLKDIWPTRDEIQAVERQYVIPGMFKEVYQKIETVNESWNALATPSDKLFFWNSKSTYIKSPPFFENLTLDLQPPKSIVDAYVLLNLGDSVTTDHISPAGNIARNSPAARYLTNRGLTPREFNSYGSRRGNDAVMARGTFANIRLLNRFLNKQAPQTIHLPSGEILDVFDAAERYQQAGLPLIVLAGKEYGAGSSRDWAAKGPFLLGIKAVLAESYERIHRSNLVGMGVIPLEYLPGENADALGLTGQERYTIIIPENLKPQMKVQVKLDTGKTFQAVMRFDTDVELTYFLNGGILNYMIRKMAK

Turning to `N=C(N)c1ccc(Nc2ccc(-c3cc4ccc(C(=N)N)cc4[nH]3)cc2)cc1` [Synucleozid A], the “inhibitory effect on construct lacking SNCA 5′ UTR” value in data set [1] was “No inhibitory effect”. For the same compound, the “LDH release (cytotoxicity)” value is on record as “no toxicity” in data set [2] and “no effect” in data set [2] (listed as Synucleozid). The results for the EC50 in data set [3] and in data set [3] (listed as Synucleozid) were 2720 ± 370 nM and 2700 ± 400 nM, respectively. Also, in data set [4], the dissociation constant Kd (commonly the free concentration of one partner at which half of the binding sites on the other are occupied at equilibrium, for simple one-to-one binding) was roughly 20 µM. Also, the “reduction of avidity compared to the native IRE” value in data set [4] is 10 fold. The “effect on binding of IRP-1 to SNCA IRE RNA” value in data set [5] is on record as “Neither Synucleozid concentration (0.2, 1, 5 μM) nor pre-incubation time (1, 5, 15, 60 min) has any significant effect”. Besides, in data set [6], the “increase of Tm of wild type IRE” value amounted to 3 °C. Besides, the “Tm of wild type IRE in presence of Synucleozid” value in data set [6] (from 51.4 without compound) is 54.8 °C. Also, the “ΔG37° of wild type IRE in presence of Synucleozid” value in data set [6] (from −2.91 without compound) is -3.23 kcal/mol.

The values are drawn from patent publication US20230054976A1, “METHODS FOR INHIBITION OF ALPHA-SYNUCLEIN mRNA USING SMALL MOLECULES” (The Scripps Research Institute, priority 2019, published 2023).
